How the values were obtained:
[1] = biological target: GDP-bound HRAS wild-type protein (Homo sapiens, UniProt P01112); assay: Binding to HRAS by surface plasmon resonance (SPR), Single Cycle Kinetics; conditions: for HRAS/KRAS (ratio of KD value with respect to HRAS to KD value with respect to KRAS): GDP-bound HRAS wild-type vs GDP-bound KRAS wild-type
[2] = biological target: GDP-bound NRAS wild-type protein (Homo sapiens, UniProt P01111); assay: Binding to NRAS by surface plasmon resonance (SPR), Single Cycle Kinetics; conditions: for NRAS/KRAS (ratio of KD value with respect to NRAS to KD value with respect to KRAS): GDP-bound NRAS wild-type vs GDP-bound KRAS wild-type
Sequence of GDP-bound NRAS wild-type protein (P01111 whole entry): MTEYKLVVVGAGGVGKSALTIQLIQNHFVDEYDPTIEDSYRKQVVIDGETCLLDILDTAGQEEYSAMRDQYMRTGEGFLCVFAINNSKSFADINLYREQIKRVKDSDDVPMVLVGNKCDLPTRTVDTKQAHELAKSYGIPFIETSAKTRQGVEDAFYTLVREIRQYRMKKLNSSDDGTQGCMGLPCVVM

Sequence of GDP-bound HRAS wild-type protein (P01112 whole entry): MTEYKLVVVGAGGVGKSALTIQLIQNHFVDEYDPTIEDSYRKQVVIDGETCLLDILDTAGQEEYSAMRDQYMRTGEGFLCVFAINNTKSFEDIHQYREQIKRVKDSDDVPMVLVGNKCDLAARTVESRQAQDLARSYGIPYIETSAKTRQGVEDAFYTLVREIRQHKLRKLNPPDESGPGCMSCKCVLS

Structure (SMILES) | HRAS/KRAS (ratio of KD value with respect to HRAS to KD value with respect to KRAS) ([1]; SPR) | NRAS/KRAS (ratio of KD value with respect to NRAS to KD value with respect to KRAS) ([2]; SPR) | HRAS/KRAS (ratio of KD value with respect to GDP-bound HRAS wild-type protein to KD value with respect to KRAS) ([1]; class symbols) | NRAS/KRAS (ratio of KD value with respect to GDP-bound NRAS wild-type protein to KD value with respect to KRAS) ([2]; class symbols) | other results
C=CCN1CC(=O)N(C)[C@H]2C/C=C\CCN(C2=O)[C@@H](Cc2ccc(C)cc2)C(=O)N(C)CC(=O)N[C@@H](CCc2cc(F)c(C(F)(F)F)c(F)c2)C(=O)N2C[C@H](OCC)C[C@H]2C(=O)NC2(CC(C)(C)C2)C(=O)N(C)[C@@H](C2CCCC2)C(=O)N(C)[C@H](C(=O)N(C)C)CC(=O)N(C)[C@@H](CC(C)C)C(=O)N[C@@H]([C@@H](C)CC)C1=O [PP2050] | A (a compound having 10 or more and less than 20 is denoted as A) | A (a compound having 10 or more and less than 20 is denoted as A) | – | – | –
CCO[C@@H]1C[C@H]2C(=O)NC3(CC(C)(C)C3)C(=O)N(C)[C@@H](C(CC)CC)C(=O)N(C)[C@H](C(=O)N(C)C)CC(=O)N(C)[C@H]3CCC/C=C/c4ccc(cc4)C[C@@H](C(=O)N(C)CC(=O)N[C@@H](CCc4cc(F)c(C(F)(F)F)c(F)c4)C(=O)N2C1)N1CC/C=C\C[C@@H](C1=O)N(C)C(=O)CN(C1CC1)C(=O)[C@H]([C@@H](C)CC)NC3=O [PP2955] | – | – | A (a compound having 10 or more and less than 20 is denoted as A) | A (a compound having 10 or more and less than 20 is denoted as A) | –
CC[C@H](C)[C@@H]1NC(=O)[C@H](CC(C)C)N(C)C(=O)C[C@@H](C(=O)N2CCOCC2)N(C)C(=O)[C@H](C2CCCC2)N(C)C(=O)C2(CCC2)NC(=O)[C@@H]2[C@H](OC)CCN2C(=O)[C@H](CCc2cc(F)c(C(F)(F)F)c(F)c2)NC(=O)CN(C)C(=O)[C@H](Cc2ccc(C(F)(F)F)cc2)N2CCCC[C@@H](C2=O)N(C)C(=O)CN(C)C1=O [PP1084] | – | – | – | – | HRAS/KRAS (ratio of KD value with respect to HRAS to KD value with respect to KRAS) ([1]; KD ratio, SPR): B (a compound having 3 or more and less than 10 is denoted as B); NRAS/KRAS (ratio of KD value with respect to NRAS to KD value with respect to KRAS) ([2]; KD ratio, SPR): C (A compound having a KD ratio of 0.1 or more and less than 3 is denoted as C)
CCO[C@@H]1C[C@H]2C(=O)NC3(CC(C)(C)C3)C(=O)N(C)[C@@H](C(CC)CC)C(=O)N(C)[C@H](C(=O)N(C)C)CC(=O)N(C)[C@@H](COC)C(=O)N[C@@H]([C@@H](C)CC)C(=O)N(C)CC(=O)N(C)[C@H]3C/C=C\CCN(C3=O)[C@@H](CC3CCCCC3)C(=O)N(C)CC(=O)N[C@@H](CCc3cc(F)c(C(F)(F)F)c(F)c3)C(=O)N2C1 [PP2456] | A (a compound having 10 or more and less than 20 is denoted as A) | A (a compound having 10 or more and less than 20 is denoted as A) | – | – | –
CCC[C@H]1C(=O)N[C@@H]([C@@H](C)CC)C(=O)N(C)CC(=O)N(C)[C@H]2C/C=C\CCN(C2=O)[C@@H](Cc2ccc(C)cc2)C(=O)N(C)CC(=O)N[C@@H](CCc2ccc(Cl)c(Cl)c2)C(=O)N2C[C@H](OC(C)C)C[C@H]2C(=O)NC2(CC(C)(C)C2)C(=O)N(C)[C@@H](C(CC)CC)C(=O)N(C)[C@H](C(=O)N(C)C)CC(=O)N1C [PP2537] | – | – | A (a compound having 10 or more and less than 20 is denoted as A) | AA (a compound having 20 or more is denoted as AA) | –
CCOC[C@H]1C(=O)N[C@@H]([C@@H](C)CC)C(=O)N(C)CC(=O)N(C)[C@H]2C/C=C\CCN(C2=O)[C@@H](Cc2ccc(C)cc2)C(=O)N(C)CC(=O)N[C@@H](CCc2ccc(C(F)(F)F)c(Cl)c2)C(=O)N2C[C@@H](C)C[C@H]2C(=O)NC2(CC(C)(C)C2)C(=O)N(C)[C@@H](C2CCCC2)C(=O)N(C)[C@H](C(=O)N(C)C)CC(=O)N1C [PP2394] | B (a compound having 3 or more and less than 10 is denoted as B) | A (a compound having 10 or more and less than 20 is denoted as A) | – | – | –
CCO[C@@H]1C[C@H]2C(=O)NC3(CCC3)C(=O)N(C)[C@@H](C3CCCC3)C(=O)N(C)[C@H](C(=O)N3CCOCC3)CC(=O)N(C)[C@@H](CCOC)C(=O)N[C@@H]([C@@H](C)CC)C(=O)N(C)CC(=O)N(C)[C@H]3CCCCCN(C3=O)[C@@H](Cc3ccc(C(F)(F)F)cc3)C(=O)N(C)CC(=O)N[C@@H](CCc3cc(F)c(C(F)(F)F)c(F)c3)C(=O)N2C1 [PP0690] | – | – | – | – | HRAS/KRAS (ratio of KD value with respect to GDP-bound HRAS wild-type protein to KD value with respect to KRAS) ([1]; SPR): B (a compound having 3 or more and less than 10 is denoted as B); NRAS/KRAS (ratio of KD value with respect to GDP-bound NRAS wild-type protein to KD value with respect to KRAS) ([2]; SPR): B (a compound having 3 or more and less than 10 is denoted as B)
CCO[C@@H]1C[C@H]2C(=O)NC3(CC(C)(C)C3)C(=O)N(C)[C@@H](C3CCCC3)C(=O)N(C)[C@H](C(=O)N3CCCCC3)CC(=O)N(C)[C@@H](COC)C(=O)N[C@@H]([C@@H](C)CC)C(=O)N(C)CC(=O)N(C)[C@H]3C/C=C\CCN(C3=O)[C@@H](Cc3ccc(C)cc3)C(=O)N(C)CC(=O)N[C@@H](CCc3cc(F)c(C(F)(F)F)c(F)c3)C(=O)N2C1 [PP2668] | – | – | A (a compound having 10 or more and less than 20 is denoted as A) | A (a compound having 10 or more and less than 20 is denoted as A) | –

Source: patent US20250230193A1, “CYCLIC COMPOUND HAVING SELECTIVE KRAS INHIBITORY EFFECT ON HRAS AND NRAS” (CHUGAI SEIYAKU KABUSHIKI KAISHA, priority 2022, published 2025)
